Reference: publication PMC10945555, “Improving Activity of New Arylurea Agents against Multidrug-Resistant and Biofilm-Producing Staphylococcus epidermidis” (ACS Medicinal Chemistry Letters, 2024)
Where two headings read alike, the source gives them in different places.

Columns and labels:
Type in all cases: cell-based
[1] = tested on: clinical MDR Staphylococcus epidermidis isolates; assay: MIC, broth microdilution, 81 clinical MDR strains; details: Staphylococcus epidermidis
Procedure: 2 Biological assay protocols
Microbiological tests were carried out under aseptic conditions in a laminar chamber of the 2nd […]
(BioTectum 1.2, Alchem Poland). The assessment of antimicrobial activity was carried out for final compounds in the form of free bases, soluble in DMSO (Merck, Germany), at the initial […]
concentration of 1 mg/mL. […]
were provided by Cayman Chemical, USA. […]
The antibacterial activity of selected compounds was also tested on a panel of 81 unrelated, multidrug -resistant clinical strains of Staphylococcus epidermidis from the own collection of the Department of Pharmaceutical Microbiology of the Jagiellonian University Medical College.
2.2 Effect of evaluated compounds on planktonic cells
The susceptibility of three reference bacterial strains (Staphylococcus epidermidis ATCC […]
Table S1) and 81 clinical MDR S. epidermidis (Table S2) to the tested compounds was assessed by determining the MIC value (Minimal Inhibitory Concentration) by microdilution in a liquid medium in 96-well flat-bottom cell culture plates (Nest Biotechnology Scientific, USA). The antibacterial properties of the compo unds were tested in the concentration range from 50 µg/mL to 0.1 µg/mL by making a series of double dilutions of the compound in liquid Mueller -Hinton II Broth Cation Adjusted (MHB II, BBL TM, USA) according to the European Committee on […]
Antimicrobial Susceptibility Testing guidelines (EUCAST).2,3 The determinations were performed twice. The MIC50 and MIC90 values were determined for each of the tested

[2] = tested on: Staphylococcus epidermidis ATCC 35984; assay: MIC, broth microdilution, MDR/BPSE reference strain; details: Staphylococcus epidermidis, ATCC35984, read-out: MIC MDR/BPSE, Staphylococcus epidermidis ATCC 35984
Method in brief: (§1)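 Compounds tested as free bases dissolved in DMSO (1 mg/mL stock); determinations done twice; linezolid as positive control.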

[3] = tested on: Staphylococcus aureus ATCC BAA-976; assay: MIC, broth microdilution, MDR/BPSA reference strain; details: ATCCBAA976; Staphylococcus aureus ATCC BAA-976; read-out: MIC MDR/BPSA
Method in brief: as §1

O=S(=O)(NC1CCN(CCC(Oc2ccc(C(F)(F)F)cc2)c2cccs2)CC1)c1cccc(Cl)c1 (centres unmarked) [Compound 14]
0.1 µg/mL: MIC ([1]; clinical strain 1 (Table S2), read-out: MIC) | MIC ([1]; clinical strain 49 (Table S2), read-out: MIC)
0.8 µg/mL: MIC ([1]; clinical strain 3 (Table S2), read-out: MIC) | MIC ([1]; clinical strain 6 (Table S2), read-out: MIC) | MIC ([1]; clinical strain 73 (Table S2), read-out: MIC)
6.25 µg/mL: MIC ([1]; clinical strain 12 (Table S2), read-out: MIC) | MIC ([1]; clinical strain 13 (Table S2), read-out: MIC) | MIC ([1]; clinical strain 14 (Table S2), read-out: MIC) | MIC ([1]; clinical strain 22 (Table S2), read-out: MIC) | MIC ([1]; clinical strain 24 (Table S2), read-out: MIC) | MIC ([1]; clinical strain 25 (Table S2), read-out: MIC) | MIC ([1]; clinical strain 26 (Table S2), read-out: MIC) | MIC ([1]; clinical strain 32 (Table S2), read-out: MIC) | MIC ([1]; clinical strain 58 (Table S2), read-out: MIC) | MIC ([1]; clinical strain 62 (Table S2), read-out: MIC) | MIC ([1]; clinical strain 64 (Table S2), read-out: MIC) | MIC ([1]; clinical strain 65 (Table S2), read-out: MIC) | MIC ([1]; clinical strain 75 (Table S2), read-out: MIC) | MIC ([1]; clinical strain 77 (Table S2), read-out: MIC) | MIC ([1]; clinical strain 78 (Table S2), read-out: MIC) | MIC ([1]; clinical strain 79 (Table S2), read-out: MIC) | MIC ([1]; clinical strain 81 (Table S2), read-out: MIC) | MIC50 ([1]; 81 clinical strains, concentration inhibiting growth of 50% clinical isolates)
0.4 µg/mL: MIC ([1]; clinical strain 2 (Table S2), read-out: MIC) | MIC ([1]; clinical strain 63 (Table S2), read-out: MIC)
1.6 µg/mL: MIC ([1]; clinical strain 4 (Table S2), read-out: MIC) | MIC ([1]; clinical strain 8 (Table S2), read-out: MIC) | MIC ([1]; clinical strain 9 (Table S2), read-out: MIC) | MIC ([1]; clinical strain 15 (Table S2), read-out: MIC) | MIC ([1]; clinical strain 16 (Table S2), read-out: MIC) | MIC ([1]; clinical strain 20 (Table S2), read-out: MIC)
≤ 0.8 µg/mL: MIC [2]
50 µg/mL: MIC ([1]; clinical strain 36 (Table S2), read-out: MIC) | MIC ([1]; clinical strain 44 (Table S2), read-out: MIC) | MIC ([1]; clinical strain 46 (Table S2), read-out: MIC) | MIC ([1]; clinical strain 50 (Table S2), read-out: MIC) | MIC ([1]; clinical strain 51 (Table S2), read-out: MIC) | MIC ([1]; clinical strain 55 (Table S2), read-out: MIC) | MIC ([1]; clinical strain 59 (Table S2), read-out: MIC) | MIC ([1]; clinical strain 61 (Table S2), read-out: MIC) | MIC ([1]; clinical strain 66 (Table S2), read-out: MIC) | MIC ([1]; clinical strain 67 (Table S2), read-out: MIC) | MIC ([1]; clinical strain 68 (Table S2), read-out: MIC) | MIC ([1]; clinical strain 70 (Table S2), read-out: MIC) | MIC ([1]; clinical strain 71 (Table S2), read-out: MIC) | MIC ([1]; clinical strain 74 (Table S2), read-out: MIC) | MIC90 ([1]; 81 clinical strains, concentration inhibiting growth of 90% of clinical isolates)
25 µg/mL: MIC ([1]; clinical strain 40 (Table S2), read-out: MIC) | MIC ([1]; clinical strain 41 (Table S2), read-out: MIC) | MIC ([1]; clinical strain 43 (Table S2), read-out: MIC) | MIC ([1]; clinical strain 45 (Table S2), read-out: MIC) | MIC ([1]; clinical strain 47 (Table S2), read-out: MIC)
10 µg/mL: MIC ([1]; mean of MIC values against clinical MDR-SE isolates, read-out: mean MIC)
12.5 µg/mL: MIC ([1]; clinical strain 23 (Table S2), read-out: MIC) | MIC ([1]; clinical strain 28 (Table S2), read-out: MIC) | MIC ([1]; clinical strain 29 (Table S2), read-out: MIC) | MIC ([1]; clinical strain 30 (Table S2), read-out: MIC) | MIC ([1]; clinical strain 31 (Table S2), read-out: MIC) | MIC ([1]; clinical strain 34 (Table S2), read-out: MIC) | MIC ([1]; clinical strain 35 (Table S2), read-out: MIC) | MIC ([1]; clinical strain 37 (Table S2), read-out: MIC) | MIC ([1]; clinical strain 38 (Table S2), read-out: MIC) | MIC ([1]; clinical strain 39 (Table S2), read-out: MIC) | MIC ([1]; clinical strain 42 (Table S2), read-out: MIC) | MIC ([1]; clinical strain 53 (Table S2), read-out: MIC) | MIC ([1]; clinical strain 54 (Table S2), read-out: MIC) | MIC ([1]; clinical strain 57 (Table S2), read-out: MIC) | MIC ([1]; clinical strain 80 (Table S2), read-out: MIC) | MIC [3]
3.12 µg/mL: MIC ([1]; clinical strain 5 (Table S2), read-out: MIC) | MIC ([1]; clinical strain 7 (Table S2), read-out: MIC) | MIC ([1]; clinical strain 10 (Table S2), read-out: MIC) | MIC ([1]; clinical strain 11 (Table S2), read-out: MIC) | MIC ([1]; clinical strain 17 (Table S2), read-out: MIC) | MIC ([1]; clinical strain 18 (Table S2), read-out: MIC) | MIC ([1]; clinical strain 19 (Table S2), read-out: MIC) | MIC ([1]; clinical strain 21 (Table S2), read-out: MIC) | MIC ([1]; clinical strain 27 (Table S2), read-out: MIC) | MIC ([1]; clinical strain 33 (Table S2), read-out: MIC) | MIC ([1]; clinical strain 48 (Table S2), read-out: MIC) | MIC ([1]; clinical strain 52 (Table S2), read-out: MIC) | MIC ([1]; clinical strain 56 (Table S2), read-out: MIC) | MIC ([1]; clinical strain 60 (Table S2), read-out: MIC) | MIC ([1]; clinical strain 69 (Table S2), read-out: MIC) | MIC ([1]; clinical strain 72 (Table S2), read-out: MIC) | MIC ([1]; clinical strain 76 (Table S2), read-out: MIC)
